Some results are limits rather than exact numbers.

The test system of this assay is RKO p21 uninduced (proliferating) colon adenocarcinoma cells. As to the kind of experiment: Alamar Blue cell viability assay, RKO p21 uninduced (proliferating). The class given is cell-based. To be noted: Homo sapiens, Table B3, anti-proliferative/cytotoxic activity, 72 hours, read-out: −log EC50 RKO p21 uninduced (proliferating) (converted). As for the experimental part: The anti-proliferative/cytotoxic activity of the compounds described herein can be tested on subclones of RKO human colon adenocarcinoma cells (Schmidt et al., Oncogene 19, 2423-2429; 2000) using the Alamar Blue cell viability assay (described in O'Brien et al. Eur J Biochem 267, 5421-5426, 2000). The compounds are dissolved as 10 mM solutions in DMSO and subsequently diluted in semi-logarithmic steps. DMSO dilutions are further diluted 1:100 into Dulbecco's modified Eagle's medium (DMEM) containing 10% fetal calf serum to a final concentration twice as much as the final concentration in the test. RKO subclones are seeded into 96 well flat bottom plates at a density of 4000 cells per well in a volume of 50 μl per well. 24 hours after seeding the 50 μl each of the compound dilutions in DMEM medium are added into each well of the 96 well plate. Each compound dilution is tested as triplicates. Wells containing untreated control cells are filled with 50 μl DMEM medium containing 1% DMSO. The cells are then incubated with the substances for 72 hours at 37° C. in a humidified atmosphere containing 5% carbon dioxide. To determine the viability of the cells, 10 μl of an Alamar Blue solution (Biosource) are added and the fluorescence is measured at an extinction of 544 nm and an emission of 590 nm. For the calculation of the cell viability the emission value from untreated cells is set as 100% viability and the emission rates of treated cells are set in relation to the values of untreated cells. Viabilities are expressed as % values. The Graphpad Prism program is used for the calculation of EC50 values for anti-proliferative/cytotoxic activity out of the obtained dose-response curves.
To determine the cell cycle specific mode of action, subclones of RKO colon adenocarcinoma cells (RKOp21 or RKOp27 as described by Schmidt et al. in Oncogene 19, 2423-2429; 2000) are seeded into 96 well flat bottom plates at a density of 16000 cells per well in a volume of 50 μl per well in DMEM growth medium with 10% FCS containing 10 μM Ponasterone A. 24 hours after seeding the 50 μl each of the compound dilutions in DMEM medium are added into each well of the 96-well plate. Each compound dilution is tested as triplicates. Wells containing untreated control cells are filled with 50 μl DMEM medium containing 1% DMSO. The cells are then incubated with the substances for 72 hours at 37° C. in a humidified atmosphere containing 5% carbon dioxide. To determine the viability of the cells, 10 μl of an Alamar Blue solution (Biosource) are added and the fluorescence is measured at an extinction of 544 nm and an emission of 590 nm. For the calculation of the cell viability the emission value from untreated cells is set as 100% viability and the emission rates of treated cells are set in relation to the values of untreated cells. Viabilities are expressed as % values. The Graphpad Prism program (GraphPad Software, Inc) is used for the calculation of EC50 values out of the obtained dose-response curves. Viability is compared of proliferating cells grown in the absence of the inducer Ponasterone A, versus viability of cells arrested by the expression of ectopic p27Kip1 induced by Ponasterone A.
Representative values for anti-proliferation/cytotoxicity [measured as −log EC50 (mol/l)] determined in the aforementioned assays follow from the following tables B1, B2 and B3, in which the numbers of the compounds correspond to the numbers of the examples.
(In general: Resazurin is reduced to fluorescent resorufin, in cell work by metabolically active cells.)

With `COc1cc2c3c([nH]c2cc1F)[C@@H](c1cccc(O)c1)N1C(=O)N(CCCN2CCC(C)CC2)C(=O)[C@]1(C)C3` (racemic) [Example 327, (3aSR,10RS)-7-Fluoro-10-(3-hydroxy-phenyl)-6-methoxy-3a-methyl-2-[3-(4-methyl-piperidin-1-yl)-propyl]-3a,4,9,10-tetrahydro-2,9,10a-triaza-cyclopenta[b]fluorene-1,3-dione], the EC50 was 39.8 to 251 nM.

On to `C[C@@]12Cc3c([nH]c4ccc(Cl)cc34)[C@@H](c3cccc(O)c3)N1C(=O)N(CCCN1CCOCC1)C2=O` (racemic) [Example 171, (3aSR,10RS)-6-Chloro-10-(3-hydroxy-phenyl)-3a-methyl-2-(3-morpholin-4-yl-propyl)-3a,4,9,10-tetrahydro-2,9,10a-triaza-cyclopenta[b]fluorene-1,3-dione], for which the EC50 is at most 39.8 nM.

Turning to `C[C@@]12Cc3c([nH]c4ccc(OC(F)F)cc34)[C@@H](c3cccc(O)c3)N1C(=O)N(CCN1CCCC1)C2=O` (racemic) [Example 279, (3aSR,10RS)-6-(1,1-Difluoro-methoxy)-10-(3-hydroxy-phenyl)-3a-methyl-2-(2-pyrrolidin-1-yl-ethyl)-3a,4,9,10-tetrahydro-2,9,10a-triaza-cyclopenta[b]fluorene-1,3-dione], the EC50 was at most 39.8 nM.

As to `CC(C)N(C)CCCN1C(=O)N2[C@H](c3cccc(O)c3)c3[nH]c4cc(F)c(Cl)cc4c3C[C@@]2(C)C1=O` (racemic) [Example 474, (3aSR,10RS)-6-Chloro-7-fluoro-10-(3-hydroxy-phenyl)-2-[3-(isopropyl-methyl-amino)-propyl]-3a-methyl-3a,4,9,10-tetrahydro-2,9,10a-triaza-cyclopenta[b]fluorene-1,3-dione], the EC50 is at most 39.8 nM.

For `CCN(CC)CCN1C(=O)N2[C@H](c3cccc(O)c3)c3[nH]c4cc(F)c(Cl)cc4c3C[C@@]2(C)C1=O` (racemic) [Example 336, (3aSR,10RS)-6-Chloro-2-(2-diethylamino-ethyl)-7-fluoro-10-(3-hydroyx-phenyl)-3a-methyl-3a,4,9,10-tetrahydro-2,9,10a-triaza-cyclopenta[b]fluorene-1,3-dione], the EC50 was 39.8 to 251 nM.

Regarding `COc1cc2c3c([nH]c2cc1F)[C@@H](c1cccc(O)c1)N1C(=O)N(CCNC(C)(C)C)C(=O)[C@]1(C)C3` (racemic) [Example 256, (3aSR,10RS)-2-(2-tert-Butylamino-ethyl)-7-fluoro-10-(3-hydroxy-phenyl)-6-methoxy-3a-methyl-3a,4,9,10-tetrahydro-2,9,10a-triaza-cyclopenta[b]fluorene-1,3-dione], the 50% effective concentration (EC50) is at most 39.8 nM.

Turning to `CCOc1ccc2[nH]c3c(c2c1)C[C@@]1(C)C(=O)N(CCNCC(C)C)C(=O)N1[C@@H]3c1cccc(O)c1` (racemic) [Example 153, (3aSR,10RS)-6-Ethoxy-10-(3-hydroxy-phenyl)-2-(2-isobutylamino-ethyl)-3a-methyl-3a,4,9,10-tetrahydro-2,9,10a-triaza-cyclopenta[b]fluorene-1,3-dione], the EC50 is at most 39.8 nM.

Consider `C=CCN(C)CCCN1C(=O)N2[C@H](c3cccc(O)c3)c3[nH]c4ccc(Cl)cc4c3C[C@@]2(C)C1=O` (racemic) [Example 169, (3aSR,10RS)-2-[3-(Allyl-methyl-amino)-propyl]-6-chloro-10-(3-hydroxy-phenyl)-3a-methyl-3a,4,9,10-tetrahydro-2,9,10a-triaza-cyclopenta[b]fluorene-1,3-dione], for which the EC50 was at most 39.8 nM.

Take `COc1cc2c3c([nH]c2cc1F)[C@@H](c1cccc(O)c1)N1C(=O)N(CCN2CCC(C)CC2)C(=O)[C@]1(C)C3` (racemic) [Example 264, (3aSR,10RS)-7-Fluoro-10-(3-hydroxy-phenyl)-6-methoxy-3a-methyl-2-[2-(4-methyl-piperidin-1-yl)-ethyl]-3a,4,9,10-tetrahydro-2,9,10a-triaza-cyclopenta[b]fluorene-1,3-dione]: the EC50 was 39.8 to 251 nM.

With `CCN(CCOC)CCN1C(=O)N2[C@H](c3cccc(O)c3)c3[nH]c4ccc(Br)cc4c3C[C@@]2(C)C1=O` (racemic) [Example 380, (3aSR,10RS)-6-Bromo-2-{2-[ethyl-(2-methoxy-ethyl)-amino]-ethyl}-10-(3-hydroxy-phenyl)-3a-methyl-3a,4,9,10-tetrahydro-2,9,10a-triaza-cyclopenta[b]fluorene-1,3-dione], the EC50 was 39.8 to 251 nM.

As to `C[C@@]12Cc3c([nH]c4ccc(OC(F)F)cc34)[C@@H](c3cccc(O)c3)N1C(=O)N(CCCN1CCCC1)C2=O` (racemic) [Example 237, (3aSR,10RS)-6-(1,1-Difluoro-methoxy)-10-(3-hydroxy-phenyl)-3a-methyl-2-(3-pyrrolidin-1-yl-propyl)-3a,4,9,10-tetrahydro-2,9,10a-triaza-cyclopenta[b]fluorene-1,3-dione], the EC50 is at most 39.8 nM.

Take `CNCCN1C(=O)N2[C@H](c3cccc(O)c3)c3[nH]c4ccc(Br)cc4c3C[C@@]2(C)C1=O` (racemic) [Example 394, (3aSR,10RS)-6-Bromo-10-(3-hydroxy-phenyl)-3a-methyl-2-(2-methylamino-ethyl)-3a,4,9,10-tetrahydro-2,9,10a-triaza-cyclopenta[b]fluorene-1,3-dione]: the EC50 was at most 39.8 nM.

As for `CCNCCCN1C(=O)N2[C@H](c3cccc(O)c3)c3[nH]c4ccc(OC(F)F)cc4c3C[C@@]2(C)C1=O` (racemic) [Example 204, (3aSR,10RS)-6-(1,1-Difluoro-methoxy)-2-(3-ethylamino-propyl)-10-(3-hydroxy-phenyl)-3a-methyl-3a,4,9,10-tetrahydro-2,9,10a-triaza-cyclopenta[b]fluorene-1,3-dione], the EC50 is 39.8 to 251 nM.

In the case of `C[C@@]12Cc3c([nH]c4cc(F)c(Cl)cc34)[C@@H](c3cccc(O)c3)N1C(=O)N(CCCNCCO)C2=O` (racemic) [Example 461, (3aSR,10RS)-6-Chloro-7-fluoro-2-[3-(2-hydroxy-ethylamino)-propyl]-10-(3-hydroxy-phenyl)-3a-methyl-3a,4,9,10-tetrahydro-2,9,10a-triaza-cyclopenta[b]fluorene-1,3-dione], the EC50 is 39.8 to 251 nM.

As to `CCN(CC)CCCN1C(=O)N2[C@H](c3cccc(O)c3)c3[nH]c4cc(F)c(Cl)cc4c3C[C@@]2(C)C1=O` (racemic) [Example 469, (3aSR,10RS)-6-Chloro-2-(3-diethylamino-propyl)-7-fluoro-10-(3-hydroxy-phenyl)-3a-methyl-3a,4,9,10-tetrahydro-2,9,10a-triaza-cyclopenta[b]fluorene-1,3-dione], the EC50 was at most 39.8 nM.

For `C[C@@]12Cc3c([nH]c4cc(F)c(Cl)cc34)[C@@H](c3cccc(O)c3)N1C(=O)N(CCCN1CCCCCC1)C2=O` (racemic) [Example 483, (3aSR,10RS)-2-(3-Azepan-1-yl-propyl)-6-chloro-7-fluoro-10-(3-hydroyx-phenyl)-3a-methyl-3a,4,9,10-tetrahydro-2,9,10a-triaza-cyclopenta[b]fluorene-1,3-dione], the EC50 is 39.8 to 251 nM.

Turning to `CC(C)CNCCCN1C(=O)N2[C@H](c3cccc(O)c3)c3[nH]c4cc(F)c(Cl)cc4c3C[C@@]2(C)C1=O` (racemic) [Example 459, (3aSR,10RS)-6-Chloro-7-fluoro-10-(3-hydroxy-phenyl)-2-(3-isobutylamino-propyl)-3a-methyl-3a,4,9,10-tetrahydro-2,9,10a-triaza-cyclopenta[b]fluorene-1,3-dione], the EC50 was 39.8 to 251 nM.

Consider `C[C@@]12Cc3c([nH]c4ccc(Br)cc34)[C@@H](c3cccc(O)c3)N1C(=O)N(CCCNCC1CC1)C2=O` (racemic) [Example 234, (3aSR,10RS)-6-Bromo-2-[3-(cyclopropylmethyl-amino)-propyl]-10-(3-hydroxy-phenyl)-3a-methyl-3a,4,9,10-tetrahydro-2,9,10a-triaza-cyclopenta[b]fluorene-1,3-dione], for which the concentration giving a half-maximal response (EC50) was at most 39.8 nM.

As usually defined, the EC50 is the concentration giving half of the maximal effect.
